These compounds were tested on WEHI-164 (assay: Antiproliferative activity against mouse WEHI164 cells assessed as cell viability after 96 hrs by MTT assay). Details: WEHI-164, 96 h.
Format: functional, cell-based

| SMILES | IC50 [µg/mL] |
| --- | --- |
| CC(C)CCCC(CCCC(C)CCC[C@H](C)COS(=O)(=O)[O-])COS(=O)(=O)[O-].[Na+].[Na+] (stereo not given in full) | 230 |
| CC(C)CCCC(CCCC(C)CCCC(C)CCOS(=O)(=O)[O-])COS(=O)(=O)[O-].[Na+].[Na+] (stereo not given) | 300 |
| CCCCCCOS(=O)(=O)[O-].[Na+] [SODIUM HEXYL SULFATE] | 150 |
| CCCCCCCCCCCCCCCCCCOS(=O)(=O)[O-].[Na+] [SODIUM OCTADECYL SULFATE] | 410 |
| CCCCCCCCCCCCCCCCCOS(=O)(=O)[O-].[Na+] [SODIUM HEPTADECYL SULFATE] | 400 |

From ChEMBL document CHEMBL1155710, “New bioactive sulfated metabolites from the Mediterranean tunicate Sidnyum turbinatum” (J Nat Prod, 2001)
